According to ChEMBL document CHEMBL5727423, “Methods using HDAC11 inhibitors” (2019):

Target: T1, Histone deacetylase 11 (Homo sapiens, UniProt Q96DB2)
T1 sequence (Q96DB2 whole entry): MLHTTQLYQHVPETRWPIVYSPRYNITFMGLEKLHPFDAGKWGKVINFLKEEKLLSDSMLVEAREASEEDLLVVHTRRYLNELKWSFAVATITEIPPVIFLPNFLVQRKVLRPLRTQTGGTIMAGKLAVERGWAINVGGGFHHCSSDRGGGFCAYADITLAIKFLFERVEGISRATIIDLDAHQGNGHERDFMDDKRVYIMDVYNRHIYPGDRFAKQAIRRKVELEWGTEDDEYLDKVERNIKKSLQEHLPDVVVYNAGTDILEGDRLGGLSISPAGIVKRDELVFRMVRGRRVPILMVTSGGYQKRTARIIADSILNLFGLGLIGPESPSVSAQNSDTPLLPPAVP
Experiment: HDAC Inhibition Assays: This example describes in vitro inhibition properties of exemplary HDAC11 inhibitors for various HDACs. HDAC inhibition assays were performed using an electrophoretic mobility shift assay at Nanosyn, Inc. (Santa Clara, Calif.). Full length human recombinant HDAC proteins were expressed in the baculoviral system and purified by affinity chromatography. A human recombinant HDAC3 was co-expressed with nuclear receptor corepressor (Ncor2). The following peptide substrates were used: FAM-RHKK(Ac)-NH2 for HDAC3, HDAC6 and HDAC8; FITC-H3K27(Ac)-NH2 for HDAC1, HDAC2 and HDAC10; FAM-RHKK(tri-fluor-Ac)-NH2 for HDAC4, HDAC5, HDAC7, HDAC9 and HDAC11. Reactions consisting of compound, enzyme, and substrate were performed in reaction buffer (comprised of 100 mM HEPES, pH7.5, 25 mM KCl, 0.1% bovine serum albumin, 0.01% Triton X-100) at 25° C. and quenched by the addition of termination buffer (100 mM HEPES, pH7.5, 0.01% Triton X-100, 0.05% SDS). The fluorescence intensity of the electrophoretically separated de-acetylated product and substrate peptide were measured and analyzed using the LabChip® 3000 microfluidic electrophoresis instrument (Perkin Elmer/Caliper Life Sciences). The IC50 values of inhibitors were determined by fitting the %-inhibition curves with 4 parameter dose-response model using XLfit 4 software (IDBS).

- IC50: < 500 nM
Compound: N#Cc1cc2nc(Nc3cccc(C(=O)NO)c3)[nH]c2cc1C(F)(F)F
